Test results reported in patent EP0058009A1, “Novel benzanilide derivatives and pharmaceutical compositions containing them” (KYOWA HAKKO KOGYO CO., LTD., priority 1981, dated 1982).

How the values were obtained:
acetic acid writhing = experiment: Analgesic effect, acetic acid writhing method (Koster et al.); format: in vivo, dd strain male mice; settings: Mus musculus, oral, 60 minutes before 0.7% acetic acid i.p., number of writhes, dd male mice, read-out: Analgesic Effect Inhibition Rate (%)
Protocol: (3) Analgesic Effect (Acetic Acid Writhing Method) This was done according to the method by Koster, et al Federation Proc. 18, 412 (1959)]. The animals to be tested were groups of 10 dd strain male nice weighing 20 ± 1 g. The compound to be tested .was administered orally, and 60 minutes after the administration, 0.2 ml of a 0.7% acetic acid solution ,vas administered intraperitoneally. For a period of 10 minutes from […] minutes after the administration of said acetic acid solution, the number of writhes was measured and the average number was determined. The unhibition rate (%) was calculated from the following equation. [formula] Ec: The average number of writhes in the control group. Et: The average number of writhes in the group to which the compound to be tested was administered.

[1] = test system: carrageenin-induced paw edema; experiment: Effect on carrageenin-induced paw edema (anti-inflammatory effect), method of Winter et al.; format: in vivo, Wistar strain male rats; settings: Rattus norvegicus, oral, 1 hour before 1% carrageenin, paw volume 3 hours after injection, Wistar male rats, read-out: Anti-inflammatory Effect Inhibition Rate (%)
Protocol: (2) Effect on carrageenin-induced paw edema (Anti-inflammatory Effect)
This test was conducted according to the method by Winter et al.[Winter C.A. et al.: Proc. Soc. Exptl.
As the animals to be tested, groups of 5 - 10 Wistar strain male rats weighing 140 ± 10 g were used, and a 1% carrageenin solution was employed as the phlogistic agent. The compound to be tested was - orally administered to the animals, and an hour later, 0.1 ml of the phlogistic agent was injected subcutaneously to the right hind paw, to induce edema.
The volume of the paw was measured before the injection of the phlogistic agent and 3 hours after the injection, and based on these volume measurements, the edema rate was calculated from the following equation: [formula]
Vn: The volume before the phlogistic agent treatment.
Vt: The volume after the phlogistic agent treatment.
The effect was determined, compared with the control group, the group to which the compound to be tested was not administered and expressed in terms of the inhibition rate of edema. The inhibition rate was calculated from the following equation.
Ec: The average edema rate of the control group.
Et: The average edema rate of the group to which the compound to be tested was administered...

dd strain male mice = experiment: Acute toxicity, oral administration, deaths counted over one week; format: in vivo; settings: Dose: 1500mg/kg, observed for a week

Compound	inhibition in vivo at 100 mg/kg (acetic acid writhing)	inhibition in vivo at 100 mg/kg [1]	Acute Toxicity Nos. of Deaths/ Nos. of Tests (dd strain male mice)
COc1ccc(C(=O)Nc2ccc(Cl)cc2C(F)(F)F)cc1N [Compound 4, 3-Amino-2'-trifluoro-methyl-4'-chloro-4-methoxy-benzanilide]	34.8%	8.7%	0/6
COc1ccc(C(=O)Nc2cc(C(F)(F)F)ccc2Cl)cc1N [Compound 5, 3-Amino-2'-chloro-5'-tri-fluoromethyl-4-methoxy-benzanilide]	52.3%	0%	0/6
COc1ccc(C(=O)Nc2ccccc2)cc1N [Compound 6, 3-Amino-4-methoxy-benzanilide]	43.4%	55.9%	0/5
CC(C)Cc1ccc(C(C)C(=O)O)cc1 (stereo not drawn) [Ibuprofen, α-methyl-4-(2-methylpropyl) benzene acetic acid, reference compound]	16.3%	68.4%	2/5
COc1ccc(C(=O)Nc2ccc(Cl)cc2Cl)cc1N [Compound 7, 3-Amino-2',4'-dichloro-4-methoxy-benzanilide]	40.2%	5.5%	0/6
COc1cc(C)nc(-n2nc(C)cc2OC)n1 [Mepirizole, 4-methoxy-2-(5-methoxy-3-meLhylpyrazol-1-yl)-6-methylpyrimidine, reference compound]	44.6%	29.2%	2/2
COc1ccc(C(=O)Nc2c(C)cccc2C)cc1N [Compound 8, 3-Amino-2',6'-dimethyl-4-methoxy-benzanilide]	45.7%	19.5%	0/6
COc1ccc(C(=O)Nc2cccc(C(F)(F)F)c2)cc1N [Compound 2, 3-Amino-3'-trifluoro-methyl-4-benzanilide]	48.8%	38.8%	0/6
COc1ccc(C(=O)Nc2cccc(F)c2)cc1N [Compound 1, 3-Amino-3'-fluoro-4-methoxy-benzanilide]	41.9%	64.3%	0/6
COc1ccc(C(=O)Nc2cc(C(F)(F)F)cc(C(F)(F)F)c2)cc1N [Compound 3, 3-Amino-3',5'-ditrifluoro-methyl-4-methoxy-benzanilide]	24.6%	16.9%	0/6
